Earlier results in US7208484B2, “Method of synthesizing 1alpha-hydroxy-2-methylene-19-nor-homopregnacalciferol” (Wisconsin Alumni Research Foundation, priority 2002, dated 2007).

What was measured:
[1] = in vivo
[2] = test system: HL-60 cell
[3] = target: T1, vitamin D receptors (Homo sapiens, UniProt P11473); conditions: compared with 1α,25-dihydroxyvitamin D3
T1 sequence (P11473 1-427): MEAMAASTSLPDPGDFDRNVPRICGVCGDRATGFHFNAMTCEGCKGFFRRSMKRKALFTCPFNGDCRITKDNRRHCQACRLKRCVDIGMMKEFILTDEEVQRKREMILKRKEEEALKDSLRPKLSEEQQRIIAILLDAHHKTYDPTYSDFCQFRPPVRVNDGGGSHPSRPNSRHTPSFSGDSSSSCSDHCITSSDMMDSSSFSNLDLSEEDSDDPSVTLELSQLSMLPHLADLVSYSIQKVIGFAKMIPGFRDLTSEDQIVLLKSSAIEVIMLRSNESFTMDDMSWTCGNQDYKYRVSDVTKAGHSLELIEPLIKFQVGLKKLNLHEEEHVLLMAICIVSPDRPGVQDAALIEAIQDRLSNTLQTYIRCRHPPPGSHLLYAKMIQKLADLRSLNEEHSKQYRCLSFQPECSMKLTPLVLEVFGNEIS

Question: For C=C1C(=CC=C2CCCC3(C)C2CCC3C(C)C)CC(O)CC1O (stereo not drawn) [1α-hydroxy-20-methyl-pregnacalciferol], which calcemic activity [1] is on record?
Answer: The calcemic activity was “essentially devoid of calcemic activity”.

Question: What about the “HL-60 cell differentiation ability” value [2] of the same compound?
Answer: Its value is “some HL-60 cell differentiation ability”.

Question: And the “binding to the receptor” value [3]?
Answer: The value was “comparable binding to the receptor as 1α,25-dihydroxyvitamin D3”.
